Assays:
Assay in all cases: relative viability (nuclei count vs DMSO), 5 days (fraction); higher = more cells survive
Linsitinib + Crizotinib = compound: C[C@]1(O)C[C@@H](c2nc(-c3ccc4ccc(-c5ccccc5)nc4c3)c3c(N)nccn32)C1 [Linsitinib] + C[C@@H](Oc1cc(-c2cnn(C3CCNCC3)c2)cnc1N)c1c(Cl)ccc(F)c1Cl [Crizotinib] (partner 1 µM)
Outline: (§1)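 Values are medians from duplicate plates. Each reflects relative viability, defined as the nuclei count of treated wells over that of vehicle wells. Lung cancer cell lines in 1536-well plates were pin-tool dosed one day after seeding with one drug alone or with a fixed anchor-drug dose plus five library-drug doses (not always all listed) in √10 steps, then fixed, stained and imaged at 4× after 5 days.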

Ispinesib + Trametinib = compound: Cc1ccc(C(=O)N(CCCN)[C@@H](c2nc3cc(Cl)ccc3c(=O)n2Cc2ccccc2)C(C)C)cc1 [Ispinesib] + CC(=O)Nc1cccc(-n2c(=O)n(C3CC3)c(=O)c3c(Nc4ccc(I)cc4F)n(C)c(=O)c(C)c32)c1 [Trametinib] (partner 0.02 µM)
Outline: as §1

Ispinesib + Pictilisib = compound: Cc1ccc(C(=O)N(CCCN)[C@@H](c2nc3cc(Cl)ccc3c(=O)n2Cc2ccccc2)C(C)C)cc1 [Ispinesib] + CS(=O)(=O)N1CCN(Cc2cc3nc(-c4cccc5[nH]ncc45)nc(N4CCOCC4)c3s2)CC1 [Pictilisib] (partner 1 µM)
Outline: as §1

Ispinesib + Decitabine = compound: Cc1ccc(C(=O)N(CCCN)[C@@H](c2nc3cc(Cl)ccc3c(=O)n2Cc2ccccc2)C(C)C)cc1 [Ispinesib] + Nc1ncn([C@H]2C[C@H](O)[C@@H](CO)O2)c(=O)n1 [Decitabine] (partner 2 µM)
Outline: as §1

Cell Line | relative viability (Linsitinib + Crizotinib; first compound 0.01 µM) | relative viability (Linsitinib + Crizotinib; first compound 0.03162 µM) | relative viability (Linsitinib + Crizotinib; first compound 0.1 µM) | relative viability (Linsitinib + Crizotinib; first compound 0.3162 µM) | relative viability (Linsitinib + Crizotinib; first compound 1 µM) | relative viability (Ispinesib + Trametinib; first compound 0.001 µM) | relative viability (Ispinesib + Trametinib; first compound 0.003162 µM) | relative viability (Ispinesib + Trametinib; first compound 0.01 µM) | relative viability (Ispinesib + Trametinib; first compound 0.03162 µM) | relative viability (Ispinesib + Trametinib; first compound 0.1 µM) | relative viability (Ispinesib + Pictilisib; first compound 0.001 µM) | relative viability (Ispinesib + Pictilisib; first compound 0.003162 µM) | relative viability (Ispinesib + Pictilisib; first compound 0.01 µM) | relative viability (Ispinesib + Pictilisib; first compound 0.03162 µM) | relative viability (Ispinesib + Pictilisib; first compound 0.1 µM) | relative viability (Ispinesib + Decitabine; first compound 0.001 µM) | relative viability (Ispinesib + Decitabine; first compound 0.003162 µM) | relative viability (Ispinesib + Decitabine; first compound 0.01 µM) | relative viability (Ispinesib + Decitabine; first compound 0.03162 µM) | relative viability (Ispinesib + Decitabine; first compound 0.1 µM)
HCC-366 | 0.542 | 0.487 | 0.583 | 0.433 | 0.429 | 0.386 | 0.428 | 0.403 | 0.411 | 0.0793 | 0.082 | 0.161 | 0.143 | 0.0978 | 0.0851 | 0.377 | 0.426 | 0.396 | 0.399 | 0.0716
LU99A | 0.591 | 0.716 | 0.605 | 0.432 | 0.462 | 0.514 | 0.579 | 0.577 | 0.335 | 0.352 | 0.358 | 0.286 | 0.287 | 0.223 | 0.161 | 0.868 | 1.1 | 1.02 | 0.674 | 0.727
HOP-62 | 0.959 | 1.02 | 0.798 |  | 0.954 | 0.349 | 0.373 | 0.406 | 0.441 | 0.42 | 0.568 | 0.784 | 0.785 | 0.306 | 0.148 | 0.22 | 0.191 | 0.226 | 0.224 | 0.23
HCC-15 | 0.833 | 0.724 | 0.837 | 0.52 | 0.696 | 0.262 | 0.42 | 0.422 | 0.381 | 0.296 | 0.878 | 0.864 | 0.812 | 0.459 | 0.139 | 0.706 | 0.768 | 0.752 | 0.418 | 0.225
HARA | 1.03 | 1.24 | 1.21 | 0.696 | 1.14 | 0.727 | 0.634 | 0.816 | 1.14 | 0.234 | 0.445 | 0.43 | 0.392 | 0.467 | 0.179 | 0.514 | 0.467 | 0.573 | 0.709 | 0.314
SK-MES-1 | 0.955 | 1.06 | 1.01 | 0.826 | 0.931 | 0.586 | 0.533 | 0.583 | 0.21 | 0.195 | 0.374 | 0.334 | 0.447 | 0.35 | 0.24 | 0.359 | 0.393 | 0.286 | 0.187 | 0.211
NCI-H1355 | 0.974 | 0.997 | 0.888 | 0.79 | 0.664 | 0.469 | 0.456 | 0.41 | 0.414 | 0.288 | 0.418 | 0.434 | 0.489 | 0.252 | 0.198 | 0.364 | 0.364 | 0.405 | 0.33 | 0.307
NCI-H727 | 0.839 | 0.905 | 0.743 | 0.727 | 0.601 | 0.376 | 0.39 |  | 0.382 | 0.419 |  | 0.461 | 0.313 | 0.232 | 0.239 | 0.651 | 0.864 |  | 0.737 | 0.761
NCI-H520 | 0.844 | 0.615 | 0.953 |  | 0.817 | 0.775 | 0.663 | 0.557 | 0.229 | 0.221 | 0.353 | 0.276 | 0.295 | 0.181 | 0.172 | 0.54 | 0.469 | 0.33 | 0.226 | 0.227
NCI-H838 | 0.787 | 0.704 | 0.826 | 0.673 | 0.64 | 0.627 | 0.529 | 0.542 | 0.359 | 0.164 | 0.451 | 0.494 | 0.544 | 0.392 | 0.257 | 0.457 | 0.45 | 0.46 | 0.236 | 0.181
HCC-44 | 0.704 | 0.78 | 0.739 | 0.56 | 0.612 | 1.06 | 1.05 | 1.09 | 1.07 | 1.11 | 0.768 | 0.858 | 0.68 | 0.646 | 0.106 | 0.909 | 0.954 | 0.967 | 0.795 | 0.453
LK-2 | 0.249 | 0.224 | 0.222 | 0.234 | 0.257 | 0.742 | 0.819 | 0.801 | 0.751 | 0.516 | 0.645 | 0.632 | 0.744 | 0.438 | 0.443 | 0.253 | 0.419 | 0.36 | 0.216 | 0.153
HCC-827 | 0.997 | 1.03 | 0.932 |  | 0.948 | 0.595 | 0.516 | 0.542 | 0.57 | 0.59 | 0.979 | 0.964 | 1.05 | 0.8 | 0.734 | 0.303 | 0.373 | 0.32 | 0.294 | 0.234
SW 1573 | 0.801 | 0.921 | 0.796 | 0.817 | 0.577 | 0.614 | 0.547 | 0.516 | 0.158 | 0.144 | 0.483 | 0.469 | 0.715 | 0.474 | 0.232 | 0.44 | 0.58 | 0.421 | 0.156 | 0.199
NCI-H2023 | 0.57 | 0.474 | 0.753 | 0.374 | 0.359 | 0.574 | 0.606 | 0.551 | 0.24 | 0.14 | 0.271 | 0.237 | 0.273 | 0.0793 | 0.125 | 0.226 | 0.233 | 0.247 | 0.129 | 0.103
EPLC-272H | 0.774 | 0.995 | 0.873 |  | 0.733 | 0.302 | 0.277 | 0.306 | 0.225 | 0.206 | 0.295 | 0.337 | 0.338 | 0.258 | 0.142 | 0.395 | 0.355 | 0.377 | 0.322 | 0.25

— the supplement of paper PMC10307832
